{
  "source": "patent US20260285850A1",
  "about": "“SUBSTITUTED OXAZOLIDINONES AND IMIDAZOLINONES AS HERBICIDES” (FMC CORPORATION, priority 2023, published 2026)",
  "assay_type_in_all_cases": "in vivo",
  "key": {"[1]": {"system": "sedge, umbrella (small-flower umbrella sedge, Cyperus difformis)", "assay": "Test B flooded paddy test, visual plant response rating 0-100", "conditions": "250 g ai/ha, Flood, applied to paddy water, evaluated after 13 days", "in_short": "(§1)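 Greenhouse, 13 d. Seedlings at 2-leaf stage, pots flooded to 3 cm, compound delivered into floodwater, water level held constant. Evaluated visually relative to controls.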"}, "[2]": {"system": "barnyardgrass (Echinochloa crusgalli)", "assay": "Test B flooded paddy test, visual plant response rating 0-100", "conditions": "250 g ai/ha, Flood, applied to paddy water, evaluated after 13 days", "in_short": "as §1"}, "[3]": {"system": "rice (Oryza sativa)", "assay": "Test B flooded paddy test, visual plant response rating 0-100", "conditions": "250 g ai/ha, Flood, applied to paddy water, evaluated after 13 days", "in_short": "as §1"}, "[4]": {"system": "ducksalad (Heteranthera limosa)", "assay": "Test B flooded paddy test, visual plant response rating 0-100", "conditions": "250 g ai/ha, Flood, applied to paddy water, evaluated after 13 days", "in_short": "as §1"}, "[5]": {"system": "green foxtail (Setaria viridis)", "assay": "Test A postemergence application, visual injury rating 0-100", "conditions": "10 days", "in_short": "(§2)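 Visual injury, scored 0-100 (100 = complete control) against untreated plants, 10 days after greenhouse treatment. Test chemicals in surfactant-containing non-phytotoxic solvent were applied in loam soil and sand, as a preemergence soil spray on seeds or postemergence to plants at the one- to two-leaf stage.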"}, "[6]": {"system": "corn (Zea mays)", "assay": "Test A postemergence application, visual injury rating 0-100", "conditions": "10 days", "in_short": "as §2"}, "[7]": {"system": "blackgrass (Alopecurus myosuroides)", "assay": "Test A postemergence application, visual injury rating 0-100", "conditions": "10 days", "in_short": "as §2"}, "[8]": {"system": "barnyardgrass (Echinochloa crus-galli)", "assay": "Test A postemergence application, visual injury rating 0-100", "conditions": "10 days", "in_short": "as §2"}, "[9]": {"system": "horseweed (Erigeron canadensis)", "assay": "Test A postemergence application, visual injury rating 0-100", "conditions": "10 days", "in_short": "as §2"}, "[10]": {"system": "palmer (palmer amaranth, palmer pigweed, Amaranthus palmeri)", "assay": "Test A postemergence application, visual injury rating 0-100", "conditions": "10 days", "in_short": "as §2"}, "[11]": {"system": "wheat (Triticum aestivum)", "assay": "Test A postemergence application, visual injury rating 0-100", "conditions": "10 days", "in_short": "as §2"}, "[12]": {"system": "kochia (Bassia scoparia)", "assay": "Test A postemergence application, visual injury rating 0-100", "conditions": "10 days", "in_short": "as §2"}, "[13]": {"system": "ryegrass, Italian (italian ryegrass, Lolium multiflorum)", "assay": "Test A postemergence application, visual injury rating 0-100", "conditions": "10 days", "in_short": "as §2"}, "[14]": {"system": "soybean (Glycine max)", "assay": "Test A postemergence application, visual injury rating 0-100", "conditions": "10 days", "in_short": "as §2"}, "[15]": {"system": "oat, wild (wild oat, Avena fatua)", "assay": "Test A postemergence application, visual injury rating 0-100", "conditions": "10 days", "in_short": "as §2"}, "[16]": {"system": "ragweed (common ragweed, Ambrosia artemisiifolia)", "assay": "Test A postemergence application, visual injury rating 0-100", "conditions": "10 days", "in_short": "as §2"}, "[17]": {"system": "galium (catchweed bedstraw, Galium aparine)", "assay": "Test A postemergence application, visual injury rating 0-100", "conditions": "10 days", "in_short": "as §2"}, "[18]": {"system": "green foxtail (Setaria viridis)", "assay": "Test A preemergence soil spray, visual injury rating 0-100", "conditions": "10 days, 0 = no effect, 100 = complete control", "in_short": "as §2"}, "[19]": {"system": "corn (Zea mays)", "assay": "Test A preemergence soil spray, visual injury rating 0-100", "conditions": "10 days, 0 = no effect, 100 = complete control", "in_short": "as §2"}, "[20]": {"system": "blackgrass (Alopecurus myosuroides)", "assay": "Test A preemergence soil spray, visual injury rating 0-100", "conditions": "10 days, 0 = no effect, 100 = complete control", "in_short": "as §2"}, "[21]": {"system": "barnyardgrass (Echinochloa crus-galli)", "assay": "Test A preemergence soil spray, visual injury rating 0-100", "conditions": "10 days, 0 = no effect, 100 = complete control", "in_short": "as §2"}, "[22]": {"system": "palmer (palmer amaranth, palmer pigweed, Amaranthus palmeri)", "assay": "Test A preemergence soil spray, visual injury rating 0-100", "conditions": "10 days, 0 = no effect, 100 = complete control", "in_short": "as §2"}, "[23]": {"system": "wheat (Triticum aestivum)", "assay": "Test A preemergence soil spray, visual injury rating 0-100", "conditions": "10 days, 0 = no effect, 100 = complete control", "in_short": "as §2"}, "[24]": {"system": "kochia (Bassia scoparia)", "assay": "Test A preemergence soil spray, visual injury rating 0-100", "conditions": "10 days, 0 = no effect, 100 = complete control", "in_short": "as §2"}, "[25]": {"system": "ryegrass, Italian (italian ryegrass, Lolium multiflorum)", "assay": "Test A preemergence soil spray, visual injury rating 0-100", "conditions": "10 days, 0 = no effect, 100 = complete control", "in_short": "as §2"}, "[26]": {"system": "soybean (Glycine max)", "assay": "Test A preemergence soil spray, visual injury rating 0-100", "conditions": "10 days, 0 = no effect, 100 = complete control", "in_short": "as §2"}, "[27]": {"system": "oat, wild (wild oat, Avena fatua)", "assay": "Test A preemergence soil spray, visual injury rating 0-100", "conditions": "10 days, 0 = no effect, 100 = complete control", "in_short": "as §2"}, "[28]": {"system": "ragweed (common ragweed, Ambrosia artemisiifolia)", "assay": "Test A preemergence soil spray, visual injury rating 0-100", "conditions": "10 days, 0 = no effect, 100 = complete control", "in_short": "as §2"}, "[29]": {"conditions": "31 g ai/ha, postemergence, 0 = no effect, 100 = complete control"}, "[30]": {"conditions": "Postemergence, 125 g ai/ha, 0 is no effect, 100 is complete control"}},
  "data": [
    {"smiles": "CC(C)COC(=O)C1C=CC(NC(=O)C2(C)CN(c3cc(F)cc(F)c3)C(=O)O2)C1", "note": "(stereo not shown) [Compound 56]", "values": [
      {"measurement": "Plant response rating, Sedge, Umbrella (0 to 100 scale, 0 is no effect and 100 is complete control)", "setting": "[1]", "value": 50},
      {"measurement": "Plant response rating, Barnyardgrass (0 to 100 scale, 0 is no effect and 100 is complete control)", "setting": "[2]", "value": 95},
      {"measurement": "Plant response rating, Rice (0 to 100 scale, 0 is no effect and 100 is complete control)", "setting": "[3]", "value": 15},
      {"measurement": "Plant response rating, Ducksalad (0 to 100 scale, 0 is no effect and 100 is complete control)", "setting": "[4]", "value": 90},
      {"measurement": "Foxtail, Green plant response rating (0-100)", "setting": "[5]; [29]", "value": 30},
      {"measurement": "Foxtail, Green plant response rating (0 to 100 scale)", "setting": "[5]; [30]", "value": 90},
      {"measurement": "Corn plant response rating (0-100)", "setting": "[6]; [29]", "value": 90},
      {"measurement": "Corn plant response rating (0 to 100 scale)", "setting": "[6]; [30]", "value": 100},
      {"measurement": "Blackgrass plant response rating (0-100)", "setting": "[7]; [29]", "value": 60},
      {"measurement": "Blackgrass plant response rating (0 to 100 scale)", "setting": "[7]; [30]", "value": 90},
      {"measurement": "Barnyardgrass plant response rating (0-100)", "setting": "[8]; [29]", "value": 90},
      {"measurement": "Barnyardgrass plant response rating (0 to 100 scale)", "setting": "[8]; [30]", "value": 100},
      {"measurement": "Horseweed plant response rating (0-100)", "setting": "[9]; [29]", "value": 20},
      {"measurement": "Horseweed plant response rating (0 to 100 scale)", "setting": "[9]; [30]", "value": 80},
      {"measurement": "Amaranth, Palmer plant response rating (0-100)", "setting": "[10]; [29]", "value": 90},
      {"measurement": "Amaranth, Palmer / Pigweed, Palmer plant response rating (0 to 100 scale)", "setting": "[10]; [30]", "value": 80},
      {"measurement": "Wheat plant response rating (0-100)", "setting": "[11]; [29]", "value": 90},
      {"measurement": "Wheat plant response rating (0 to 100 scale)", "setting": "[11]; [30]", "value": 90},
      {"measurement": "Kochia plant response rating (0-100)", "setting": "[12]; [29]", "value": 70},
      {"measurement": "Kochia plant response rating (0 to 100 scale)", "setting": "[12]; [30]", "value": 80},
      {"measurement": "Ryegrass, Italian plant response rating (0-100)", "setting": "[13]; [29]", "value": 90},
      {"measurement": "Ryegrass, Italian plant response rating (0 to 100 scale)", "setting": "[13]; [30]", "value": 90},
      {"measurement": "Soybean plant response rating (0-100)", "setting": "[14]; [29]", "value": 70},
      {"measurement": "Soybean plant response rating (0 to 100 scale)", "setting": "[14]; [30]", "value": 70},
      {"measurement": "Oat, Wild plant response rating (0-100)", "setting": "[15]; [29]", "value": 90},
      {"measurement": "Oat, Wild plant response rating (0 to 100 scale)", "setting": "[15]; [30]", "value": 90},
      {"measurement": "Ragweed plant response rating (0-100)", "setting": "[16]; [29]", "value": 50},
      {"measurement": "Ragweed plant response rating (0 to 100 scale)", "setting": "[16]; [30]", "value": 70},
      {"measurement": "Galium plant response rating (0-100)", "setting": "[17]; [29]", "value": 80},
      {"measurement": "Galium plant response rating (0 to 100 scale)", "setting": "[17]; [30]", "value": 80},
      {"measurement": "Foxtail, Green plant response rating (0-100)", "setting": "[18]; 31 g ai/ha", "value": 40},
      {"measurement": "Foxtail, Green plant response rating (0 to 100 scale)", "setting": "[18]; 125 g ai/ha", "value": 90},
      {"measurement": "Corn plant response rating (0-100)", "setting": "[19]; 31 g ai/ha", "value": 10},
      {"measurement": "Corn plant response rating (0 to 100 scale)", "setting": "[19]; 125 g ai/ha", "value": 90},
      {"measurement": "Blackgrass plant response rating (0-100)", "setting": "[20]; 31 g ai/ha", "value": 30},
      {"measurement": "Blackgrass plant response rating (0 to 100 scale)", "setting": "[20]; 125 g ai/ha", "value": 90},
      {"measurement": "Barnyardgrass plant response rating (0-100)", "setting": "[21]; 31 g ai/ha", "value": 30},
      {"measurement": "Barnyardgrass plant response rating (0 to 100 scale)", "setting": "[21]; 125 g ai/ha", "value": 100},
      {"measurement": "Amaranth, Palmer plant response rating (0-100)", "setting": "[22]; 31 g ai/ha", "value": 0},
      {"measurement": "Amaranth, Palmer plant response rating (0 to 100 scale)", "setting": "[22]; 125 g ai/ha", "value": 70},
      {"measurement": "Wheat plant response rating (0-100)", "setting": "[23]; 31 g ai/ha", "value": 90},
      {"measurement": "Wheat plant response rating (0 to 100 scale)", "setting": "[23]; 125 g ai/ha", "value": 100},
      {"measurement": "Kochia plant response rating (0-100)", "setting": "[24]; 31 g ai/ha", "value": 0},
      {"measurement": "Kochia plant response rating (0 to 100 scale)", "setting": "[24]; 125 g ai/ha", "value": 90},
      {"measurement": "Ryegrass, Italian plant response rating (0-100)", "setting": "[25]; 31 g ai/ha", "value": 80},
      {"measurement": "Ryegrass, Italian plant response rating (0 to 100 scale)", "setting": "[25]; 125 g ai/ha", "value": 90},
      {"measurement": "Soybean plant response rating (0-100)", "setting": "[26]; 31 g ai/ha", "value": 30},
      {"measurement": "Soybean plant response rating (0 to 100 scale)", "setting": "[26]; 125 g ai/ha", "value": 80},
      {"measurement": "Oat, Wild plant response rating (0-100)", "setting": "[27]; 31 g ai/ha", "value": 90},
      {"measurement": "Oat, Wild plant response rating (0 to 100 scale)", "setting": "[27]; 125 g ai/ha", "value": 90},
      {"measurement": "Ragweed plant response rating (0-100)", "setting": "[28]; 31 g ai/ha", "value": 0},
      {"measurement": "Ragweed plant response rating (0 to 100 scale)", "setting": "[28]; 125 g ai/ha", "value": 0}
    ]}
  ]
}
